{
  "source": "patent US9273338B2",
  "about": "“Chimeric avian-based screening system containing mammalian grafts” (priority 2004, dated 2016)",
  "molecules": {"B1": {"name": "LT: lymphotoxin (LT) (protein, UniProt P01374 35-205, looked up)", "Lymphotoxin-alpha": "LPGVGLTPSAAQTARQHPKMHLAHSTLKPAAHLIGDPSKQNSLLWRANTDRAFLQDGFSLSNNSLLVPTSGIYFVYSQVVFSGKAYSPKATSSPLYLAHEVQLFSSQYPFHVPLLSSQKMVYPGLQEPWLHSMYHGAAFQLTQGDQLSTHTDGIPHLVLSPSTVFFGAFAL"}},
  "key": {"[1]": {"test_system": "human skin grafted onto the CAM of a fertilized egg", "experiment": "Human skin irritation quantified with the skin-CAM system", "assay_type": "in vivo", "protocol": "FIGS. 2B and 2C quantitate the change in epidermal thickness of CAM-grafted and organ culture-maintained human skin. Epidermal thickness was measured using digital photos, by tracing the epidermis with a digitizing pad and determining area using the public domain scientific imaging software ImageJ (http://rsb.info.nih.gov/ij/). Size bars represent 0.05 mm\nPunch biopsies of human skin were grafted onto the CAM of a fertilized egg as described in Example 1. The human skin samples were allowed to incubate for 2 days after grafting in order to allow for the skin to incorporate, and then the adhesive tape sealing of the samples was reopened. The detergent sodium dodecylsulfate (SDS) was applied to different skin samples at different concentrations topically using a small plastic ring cut from a pipette tip keep the irritant in place. The skin samples were then resealed and returned to the incubator for an addition three days, whereupon they underwent routine histological and immunochemical analysis using Abs for the proliferation marker PCNA. PCNA^+ cells were counted in several sections, and the length of the epidermis in the section measured. Results are expressed as PCNA^+ cells/mm."}, "[2]": {"test_system": "Langerhans cells (LC) in human skin explants cultivated on the CAM", "experiment": "Activation and mobilization of Langerhans cells in human skin grafts on the CAM (CD1a staining)", "assay_type": "in vivo", "protocol": "Excess fat was manually removed from human skin obtained within 2 hours of surgery. The skin was cut into rectangular/square pieces approximately 7-10 mm on each side and stored on a cold plate at 15° C. in saline. Eggs with an artificial air sac were opened with iris scissors in a sterile hood. The ectodermal surface of the CAM was abraded by touching it briefly with a sterile piece of lens tissue to improve the adherence of the graft. The skin was then gently place on the CAM and stretched out. The eggs were then sealed with scotch tape, and returned to the incubator.\nTwo-three days after grafting the skin, the eggs were re-opened, and the grafts are evaluated visually for viability. Eggs containing skin that has yellowed or that looks obviously infected were discarded. A plastic ring just smaller than the skin was placed on the graft in order to prevent leakage of the test substance away from the skin, using Vaseline to seal it down. Then, a 50 μl drop of the tested substance was placed on the skin, and the egg was re-sealed and incubated for another 6 hours-5 days. At the end of the re-incubation, the skin was removed from the CAM and prepared for paraffin histology. […]\nAll the microscopic 400 μm-fields in triplicate sections from each skin sample were counted with a 40× objective. The average number of cells per field was then determined and averaged for that skin sample. […]"}},
  "data": [
    {"molecule": "CCCCCCCCCCCCOS(=O)(=O)[O-].[Na+]", "note": "[SDS, sodium dodecylsulfate]", "values": [
      {"measurement": "epidermal thickness", "setting": "[1]; topical SDS treatment, FIG. 3B", "result": "no significant differences in epidermal thickness"},
      {"measurement": "epidermal proliferation (PCNA+ cells/mm)", "setting": "[1]; topical SDS, 1% and 2.5% produce similar results, 3 days after treatment, p<0.05, FIG. 3A", "result": "significantly increases epidermal proliferation"}
    ]},
    {"molecule": "O=[N+]([O-])c1ccc(F)c([N+](=O)[O-])c1", "note": "[DNFB, dinitrofluorobenzene]", "values": [
      {"measurement": "CD1a+ LC in the epidermis", "setting": "[2]; overnight (O/N) incubation, compared to untreated skin fixed immediately or O/N acetone/olive oil (solvent) treated skin, FIG. 9", "result": "significant decrease"}
    ]},
    {"molecule": "B1", "values": [
      {"measurement": "number of CD1a+ LC in epidermis", "setting": "[2]; LT-treated skin grafts, FIG. 10", "result": "clear decrease"}
    ]}
  ]
}
